Literature values as cited in patent US6653293B1, “Methods, apparatuses and medicaments for treating body fluid related diseases” (priority 1992, dated 2003).

Test system: infected T-4 lymphocytes
Conditions: in vitro, HIV-infected T-4 lymphocytes

In the case of tumor necrosis factor [TNF], the “death of infected cells” value is given as “subjects the infected cells to death” and the “time to coagulation of DNA of the infected T-4 lymphocytes after administration” value is given as “about 3 hours”.
